Publication PMC6290556, “1,4-Disubstituted Thiosemicarbazide Derivatives are Potent Inhibitors of Toxoplasma gondii Proliferation” (Molecules, 2014)
≈ marks a conversion by molar mass, not a printed value. Like-named read-outs stand apart in the source and are kept apart here.

Columns and labels:
T. gondii RH strain = test: quantitative real-time PCR (B1 gene) of T. gondii in infected L929 cells; format: cell-based, Toxoplasma gondii; details: assay B qRT-PCR, L929 host cells
Protocol: T. gondii genomic DNA was isolated from the tachyzoites of RH strain with Wizard® SV Genomic DNA Purification System (Promega, Madison, WI, USA) according to the manufacturer’s instruction. The DNA concentration and purity were measured using a NanoPhotometer (Implen, München, Germany), while the integrity of the extracted DNA was tested using an ethidium bromide-stained agarose gel. DNA was used for the detection and quantitationof T. gondii in analyzed samples and it was stored at −20 °C until use.
A quantitative real-time PCR (qRT-PCR) assay, targeting B1 gene was performed to detect and to quantitate T. gondii in analyzed samples (1g, 2b, 2m, 3d, 3l and sulphadiazine) according to the modified protocol of Wahab et al.. […] Amplification was carried out on a 7900HT real-time PCR system (Applied Biosystems, Carlsbad, CA, USA). The reaction mixtures (25 µL) consisted of 1x TaqMan PCR master mix supplemented with ROX (Applied Biosystems), 300 nM probe, 900 nM of each primer and 2 µL of template DNA. For quantification a standard curve was constructed using 10-fold serial dilutions of DNA extracted from a known number of T. gondii. The cycling parameters were: 50 °C for 2 min, initial activation at 95 °C for 10 min, and 45 two-step cycles of 95 °C for 15 s and 60 °C for 1 min. All samples were analyzed in triplicate.

[1] = system: Gram-positive bacterial species and clinical isolates of Staphylococcus aureus; design: method as in PMID 23428849; details: all test microorganisms; cited from earlier work
[2] = system: T. gondii RH strain tachyzoites; test: [3H]uracil incorporation assay of T. gondii proliferation in L929 host cells; format: cell-based; details: Toxoplasma gondii, L929, read-out: IC50 (50% of T. gondii proliferation inhibition in vitro)
[3] = system: T. gondii RH strain tachyzoites; test: as above; format: cell-based, Toxoplasma gondii; details: assay A [3H]uracil incorporation, vs untreated blank
Protocol: In the next step of our studies, the prepared 1,4-disubstituted thiosemicarbazides (series 1–3) were used to assess the inhibition of T. gondii growth in vitro. For this purpose, intracellular parasites (tachyzoites) of RH strain were incubated with different concentrations of the thiosemicarbazides ranging from 1 to 100 µg/mL. Inhibition of the parasite growth was monitored by measuring the specific incorporation of [^3H]uracil in the parasite’s nucleic acids.
The tachyzoites of T. gondii strain RH – intraspecies type I (ATCC_ Number 50174™) were maintained through passages on female C57BL/6 (H-2^b) and BALB/c (H-2^d) mice with genetically determined high and low susceptibility (respectively) to T. gondii infection (10–12 weeks old). Tachyzoites washed out from the peritoneum cavity were once expanded in vitro on L929 cells.
L929, (2 × 10^4 cells/100 µL/well) were grown in complete medium (IMDM) on 96-well plates. After 24 h incubation, a medium was removed and then T. gondii RH tachyzoites, suspended in culture medium supplemented with 1.0, 5.0, 10.0, 50.0 and 100.0 μg/mL 1,4-disubstituted thiosemicarbazides (1g, 2b, 2m, 3d, 3l) and as a control-sulfadiazine, were added (2 × 10^5 tachyzoites/200 µL/well) to the cell monolayers. After subsequent 48 h incubation 1 µCi/well of [^3H] uracil (Moravek Biochemicals Inc., Brea, CA, USA) was applied to each microculture for further 18–20 h. The amount of the isotope incorporated into the parasite nucleic acid pool, corresponding to the parasite growth, was measured by liquid scintillation counting with 1450 Microbeta Plus Liquid Scintillation Counter (Wallac Oy, Turku, Finland).

[4] = MTT cell viability assay (ISO 10993-5); format: cell-based, mouse; details: mouse, 24 h, ± SD
Protocol: (§1) Cell line L929 (ATTC® Catalog No. […] The MTT assay was used according to international standards: ISO 10993-5:2009(E), Biological evaluation of medical devices, Part 5: Tests for in vitro cytotoxicity. […] Then, 1 mg/mL MTT (50 μL/well) was added to each well and incubated at 37 °C, 10% CO2 for 2 h. Mitochondrial dehydrogenases of viable cells reduced the yellowish water-soluble MTT to water-insoluble formazan crystals, which were solubilized with dimethyl sulfoxide (DMSO). The cell culture medium was aspirated cautiously, after which 150 μL DMSO was added to each well and mixed thoroughly. Optical density (OD) was read on the ELISA reader (Multiskan EX, Labsystems, Vienna, VA, USA) at 550 nm. […] All experiments were performed in triplicate.

L929 cells = test: MTT cell viability assay (ISO 10993-5); format: cell-based, mouse; details: L929 cells
Protocol: as §1

[5] = biological target: bacterial topoisomerase IV; design: method as in PMID 21080016; details: cited from earlier work
infected cells = system: infected cells; design: method as in PMID 20541294; details: read-out: LC50 for infected cells; cited from earlier work
DNA gyrase = biological target: T1, DNA gyrase (Staphylococcus aureus, UniProt P0A0K8+P20831); test: S. aureus gyrase supercoiling assay; format: biochemical
T1 construct: purchased Inspiralis
T1 sequence (P0A0K8 whole entry): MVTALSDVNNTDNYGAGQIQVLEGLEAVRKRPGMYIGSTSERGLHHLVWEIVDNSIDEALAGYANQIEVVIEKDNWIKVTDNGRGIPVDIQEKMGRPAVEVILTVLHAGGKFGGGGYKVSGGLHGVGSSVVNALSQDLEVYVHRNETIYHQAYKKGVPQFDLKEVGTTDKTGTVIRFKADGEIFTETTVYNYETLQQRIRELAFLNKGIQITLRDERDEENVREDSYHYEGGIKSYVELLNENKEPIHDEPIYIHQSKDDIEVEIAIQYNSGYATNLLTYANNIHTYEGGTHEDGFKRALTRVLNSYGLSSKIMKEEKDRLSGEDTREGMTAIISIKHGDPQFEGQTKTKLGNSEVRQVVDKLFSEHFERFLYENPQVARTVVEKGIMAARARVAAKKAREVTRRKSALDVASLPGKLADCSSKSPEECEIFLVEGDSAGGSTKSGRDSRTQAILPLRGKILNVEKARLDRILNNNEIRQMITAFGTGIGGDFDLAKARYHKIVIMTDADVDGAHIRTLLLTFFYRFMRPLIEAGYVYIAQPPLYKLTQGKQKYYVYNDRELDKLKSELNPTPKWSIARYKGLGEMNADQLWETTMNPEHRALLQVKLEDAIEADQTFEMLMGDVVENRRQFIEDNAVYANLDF
T1 sequence (P20831 whole entry): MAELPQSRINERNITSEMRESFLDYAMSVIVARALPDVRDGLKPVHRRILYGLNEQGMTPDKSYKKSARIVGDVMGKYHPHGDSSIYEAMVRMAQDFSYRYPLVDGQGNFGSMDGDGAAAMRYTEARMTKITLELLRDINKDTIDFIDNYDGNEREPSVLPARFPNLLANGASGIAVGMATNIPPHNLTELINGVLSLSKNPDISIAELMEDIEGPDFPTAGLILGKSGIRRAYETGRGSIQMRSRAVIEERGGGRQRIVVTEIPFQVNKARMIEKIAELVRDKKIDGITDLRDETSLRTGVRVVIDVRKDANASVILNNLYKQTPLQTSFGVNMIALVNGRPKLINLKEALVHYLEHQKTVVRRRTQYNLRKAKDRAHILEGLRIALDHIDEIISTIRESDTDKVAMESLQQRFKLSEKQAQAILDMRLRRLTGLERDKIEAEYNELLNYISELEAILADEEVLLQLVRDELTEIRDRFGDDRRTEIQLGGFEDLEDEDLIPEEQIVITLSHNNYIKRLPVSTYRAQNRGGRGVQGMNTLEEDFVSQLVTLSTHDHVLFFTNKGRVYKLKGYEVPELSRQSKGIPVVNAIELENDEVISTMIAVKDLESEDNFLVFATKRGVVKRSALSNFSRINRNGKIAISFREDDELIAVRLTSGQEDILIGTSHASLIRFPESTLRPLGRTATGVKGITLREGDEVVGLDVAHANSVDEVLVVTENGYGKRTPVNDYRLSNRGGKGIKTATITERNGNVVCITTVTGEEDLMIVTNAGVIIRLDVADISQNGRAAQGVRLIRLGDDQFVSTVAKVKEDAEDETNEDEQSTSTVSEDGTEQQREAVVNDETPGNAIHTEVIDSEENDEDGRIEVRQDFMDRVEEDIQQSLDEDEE
Protocol: The assays were performed using S. aureus Gyrase Supercoiling Assay Kits (Inspiralis, Norwich, UK). Briefly, […] pBR322 plasmid DNA ([…]) was incubated with 1 unit of gyrase, in the dedicated supercoiling assay buffer supplied by the manufacturer, in the presence of varying concentrations of the compounds tested. Reactions were carried out at 37 °C for 1 h and then terminated by the addition of equal volume of 2 × STOP Buffer (40% sucrose, 100 mM Tris-Cl pH 7.5, 1 mM EDTA, and 0.5 mg/mL bromophenol blue) and chloroform/isoamyl alcohol. Samples were vortexed, centrifuged and run through a 15 cm 1% agarose gel in TAE buffer (40 mM Trisacetate, 2 mM EDTA) for 3 h at 50 V. Gels were stained with ethidium bromide and visualized under UV light.

[6] = system: Gram-positive and Gram-negative bacterial strains; test: antibacterial assay (disc diffusion / agar dilution); format: cell-based; details: even at high concentrations
Excerpt: The following microorganisms were used in this study: Staphylococcus aureus (ATCC 25923, ATCC 6538, ATCC 29213, NCTC 4163), Staphylococcus epidermidis ATCC 12228, Bacillus subtilis ATCC 6633, Bacillus cereus ATCC 11778, Micrococcus luteus (ATCC 9341, ATCC 10240), Escherichia coli (ATCC 10538, ATCC 25922, NCTC 8196), […] NCTC 4635, Pseudomonas aeruginosa (ATCC 15442, ATCC 27853, NCTC 6749), and Bordetella bronchiseptica ATCC 4617. Initially, antibacterial activity of thiosemicarbazide derivatives was screened on the basis of growth inhibition zone (giz) utilizing the disc diffusion method, according to the Clinical and Laboratory Standards Institute guidelines. For compounds showing the inhibitory effect on the growth of tested bacteria, monitored as an appearance of giz, the minimal inhibitory concentrations (MICs) were determined using agar dilution method, according to the Clinical and Laboratory Standards Institute guidelines. The minimal inhibitory concentrations (MICs) were defined as the lowest concentration of the compound preventing growth of the tested microorganism. In both methods, recommended Mueller-Hinton II agar medium (Becton Dickinson, Heidelberg, Germany) was used. Solutions containing the tested agents were prepared in methanol or DMSO. Ciprofloxacin was used as control antimicrobial agent.

topoisomerase IV = biological target: T2, topoisomerase IV (Staphylococcus aureus, UniProt P0C1S7+P0C1U9); test: S. aureus topoisomerase IV decatenation assay; format: biochemical
T2 construct: purchased Inspiralis
T2 sequence (P0C1U9 whole entry): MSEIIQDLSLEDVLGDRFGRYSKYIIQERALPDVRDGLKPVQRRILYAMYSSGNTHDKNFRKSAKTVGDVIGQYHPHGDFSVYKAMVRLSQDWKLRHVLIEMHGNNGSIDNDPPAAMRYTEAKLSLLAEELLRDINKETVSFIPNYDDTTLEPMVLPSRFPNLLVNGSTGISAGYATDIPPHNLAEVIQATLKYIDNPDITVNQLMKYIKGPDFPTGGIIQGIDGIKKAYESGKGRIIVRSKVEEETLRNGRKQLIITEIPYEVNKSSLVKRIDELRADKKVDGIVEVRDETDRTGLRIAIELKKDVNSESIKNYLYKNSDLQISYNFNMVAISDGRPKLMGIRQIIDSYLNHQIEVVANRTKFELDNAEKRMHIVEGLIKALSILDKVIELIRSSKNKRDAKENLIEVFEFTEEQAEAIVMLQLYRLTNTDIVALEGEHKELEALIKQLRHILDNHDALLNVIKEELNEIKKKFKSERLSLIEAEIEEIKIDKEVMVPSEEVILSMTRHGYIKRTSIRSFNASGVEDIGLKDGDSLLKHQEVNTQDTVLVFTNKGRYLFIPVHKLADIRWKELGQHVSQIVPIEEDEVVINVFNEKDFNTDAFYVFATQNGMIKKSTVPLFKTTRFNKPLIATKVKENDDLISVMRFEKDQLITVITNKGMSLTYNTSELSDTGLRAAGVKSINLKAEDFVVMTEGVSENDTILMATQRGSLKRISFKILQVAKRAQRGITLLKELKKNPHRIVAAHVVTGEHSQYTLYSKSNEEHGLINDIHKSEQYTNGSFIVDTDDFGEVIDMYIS
T2 sequence (P0C1S7 whole entry): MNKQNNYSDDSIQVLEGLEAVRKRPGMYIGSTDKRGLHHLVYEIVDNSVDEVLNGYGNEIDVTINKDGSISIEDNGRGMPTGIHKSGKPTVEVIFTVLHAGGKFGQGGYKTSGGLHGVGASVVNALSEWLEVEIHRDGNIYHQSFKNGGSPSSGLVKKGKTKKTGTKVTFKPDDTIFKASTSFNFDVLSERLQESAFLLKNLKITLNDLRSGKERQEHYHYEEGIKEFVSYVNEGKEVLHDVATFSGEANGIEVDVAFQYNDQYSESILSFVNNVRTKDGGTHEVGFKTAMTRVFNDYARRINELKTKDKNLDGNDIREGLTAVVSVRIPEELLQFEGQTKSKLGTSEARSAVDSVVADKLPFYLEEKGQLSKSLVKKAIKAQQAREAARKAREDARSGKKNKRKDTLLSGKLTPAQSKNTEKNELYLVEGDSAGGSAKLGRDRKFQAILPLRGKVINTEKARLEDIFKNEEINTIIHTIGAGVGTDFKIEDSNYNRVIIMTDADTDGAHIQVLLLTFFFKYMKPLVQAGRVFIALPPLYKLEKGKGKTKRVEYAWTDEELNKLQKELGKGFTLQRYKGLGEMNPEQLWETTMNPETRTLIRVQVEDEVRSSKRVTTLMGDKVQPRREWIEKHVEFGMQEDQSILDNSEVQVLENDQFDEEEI
Protocol: The assays were performed using S. aureus topoisomerase IV decatenation kits (Inspiralis). Interlinked kDNA substrate ([…]) was incubated with 1 unit of topoisomerase IV (Inspiralis), in the dedicated decatenation assay buffer supplied by the manufacturer, in the presence of varying concentrations of the compounds tested. Reactions were carried out at 37 °C for 1 h and then terminated by the addition of equal volume of 2× STOP Buffer (40% sucrose, 100 mM Tris-Cl pH 7.5, 1 mM EDTA, 0.5 mg/mL bromophenol blue) and chloroform/isoamyl alcohol. Samples were vortexed, centrifuged and run through a 15 cm 1% agarose gel in TAE buffer for 1.5 h at 80 V. Gels were stained with ethidium bromide and visualized under UV light. The concentrations of the inhibitor that prevented 50% of the kinetoplast DNA from being converted into decatenated minicircles (IC50 values) were determined by plotting the results obtained from the densytometric analyses of the gel images using Quantity One software (BioRad, Hercules, CA, USA).

[7] = read-out: viability of L929 cells

Cc1nnsc1C(=O)NNC(=S)Nc1ccc(F)cc1F [Compound 3l]
intensity of T. gondii proliferation (T. gondii RH strain; 50 µg/mL): 89.32 ± 15.74 % | intensity of T. gondii proliferation (T. gondii RH strain; 100 µg/mL): 14.08 ± 3.35 % | antibacterial screening [1]: ineffective | IC50 [2]: 92.3 µg/mL (≈ 280 µM) | intensity of T. gondii proliferation ([3]; 1 µg/mL): 84.59 ± 16.61% | intensity of T. gondii proliferation ([3]; 5 µg/mL): 85.76 ± 19.71% | intensity of T. gondii proliferation ([3]; 10 µg/mL): 103.21 ± 19.27% | intensity of T. gondii proliferation ([3]; 50 µg/mL): 88.34 ± 14.40 % | intensity of T. gondii proliferation ([3]; 100 µg/mL): 37.20 ± 7.47 % | viability at 24 h, 1 µg/mL ([4]; L929 mouse fibroblast cells): 96.54 ± 0.69% | viability at 24 h, 5 µg/mL ([4]; L929 mouse fibroblast cells): 92.87 ± 0.23% | viability at 24 h, 10 µg/mL ([4]; L929 mouse fibroblast cells): 95.89 ± 0.39% | viability at 24 h, 50 µg/mL ([4]; L929 mouse fibroblast cells): 99 ± 10% | viability at 24 h, 100 µg/mL ([4]; L929 mouse fibroblast cells): 89.5 ± 3.44% | viability at 24 h, 500 µg/mL ([4]; L929 mouse fibroblast cells): 48 ± 10.1% | CC30 (concentration required for 30% proliferation inhibition in vitro) (L929 cells): 285.52 µg/mL

Cc1nc[nH]c1C(=O)NNC(=S)NC(=O)c1ccccc1 [4-benzoyl-1-(4-methyl-imidazol-5-yl)carbonylthiosemicarbazide]
IC50 [5]: 90 µg/mL (≈ 297 µM)

NC(=O)NO [hydroxyurea]
CC50 (infected cells): > 10 mM

O=C(NC(=S)NNC(=O)c1cc2ccccc2[nH]1)c1ccccc1 [4-benzoyl-1-(indol-2-yl)carbonyl-thiosemicarbazide]
IC50 [5]: 14 µg/mL (≈ 41.4 µM)

Nc1ccc(S(=O)(=O)Nc2ncccn2)cc1 [sulfadiazine, reference compound]
intensity of T. gondii proliferation (T. gondii RH strain; 100 µg/mL): 63.99 ± 10.58 % | IC50 [2]: > 500 µg/mL | CC50 (infected cells): > 10 mM

Cc1nnsc1C(=O)NNC(=S)Nc1ccccc1Br [Compound 3d]
intensity of T. gondii proliferation (T. gondii RH strain; 50 µg/mL): 75.13 ± 10.10 % | intensity of T. gondii proliferation (T. gondii RH strain; 100 µg/mL): 25.56 ± 6.32 % | antibacterial screening [1]: ineffective | IC50 [2]: 74.9 µg/mL (≈ 201 µM) | intensity of T. gondii proliferation ([3]; 1 µg/mL): 90.03 ± 14.61% | intensity of T. gondii proliferation ([3]; 5 µg/mL): 84.64 ± 15.68% | intensity of T. gondii proliferation ([3]; 10 µg/mL): 83.84 ± 19.01% | intensity of T. gondii proliferation ([3]; 50 µg/mL): 63.82 ± 5.32 % | intensity of T. gondii proliferation ([3]; 100 µg/mL): 36.52 ± 5.16 % | viability at 24 h, 1 µg/mL ([4]; L929 mouse fibroblast cells): 102 ± 3.89% | viability at 24 h, 5 µg/mL ([4]; L929 mouse fibroblast cells): 99.14 ± 0.82% | viability at 24 h, 10 µg/mL ([4]; L929 mouse fibroblast cells): 97.5 ± 5.98% | viability at 24 h, 50 µg/mL ([4]; L929 mouse fibroblast cells): 90.9 ± 6.71% | viability at 24 h, 100 µg/mL ([4]; L929 mouse fibroblast cells): 79.5 ± 5.82% | viability at 24 h, 500 µg/mL ([4]; L929 mouse fibroblast cells): 41.5 ± 5.16% | CC30 (concentration required for 30% proliferation inhibition in vitro) (L929 cells): 242.56 µg/mL

O=C(NNC(=S)Nc1ccc(F)cc1)c1cccs1 [Compound 1g, 4-(4-fluorophenyl)-1-(thiophen-2-yl)carbonylthiosemicarbazide]
inhibitory effect on DNA gyrase (DNA gyrase): No inhibitory effect | intensity of T. gondii proliferation (T. gondii RH strain; 10 µg/mL): 61.01 ± 11.23 % | intensity of T. gondii proliferation (T. gondii RH strain; 50 µg/mL): 5.00 ± 2.56 % | IC50 [2]: 33.2 µg/mL (≈ 112 µM) | intensity of T. gondii proliferation ([3]; 1 µg/mL): 96.14 ± 14.54% | intensity of T. gondii proliferation ([3]; 5 µg/mL): 74.94 ± 7.00 % | intensity of T. gondii proliferation ([3]; 10 µg/mL): 44.71 ± 16.60 % | intensity of T. gondii proliferation ([3]; 50 µg/mL): 12.62 ± 4.78 % | growth-inhibiting effect on bacterial strains [6]: no growth-inhibiting effect | viability at 24 h, 1 µg/mL [4, 7]: 103 ± 2.69% | viability at 24 h, 5 µg/mL [4, 7]: 99.5 ± 5.16% | viability at 24 h, 10 µg/mL [4, 7]: 97.3 ± 4.98% | viability at 24 h, 50 µg/mL [4, 7]: 79 ± 2.89% | viability at 24 h, 100 µg/mL [4, 7]: 67 ± 11.4% | viability at 24 h, 500 µg/mL [4, 7]: 39.8 ± 5.83% | inhibitory effect on topoisomerase IV (topoisomerase IV): No inhibitory effect
